# Assay results: article PMC6537213, “Ellagic acid microspheres restrict the growth of Babesia and Theileria in vitro and Babesia microti in vivo” (Parasites & Vectors, 2019)
# Where “and” joins values, the source holds several entries; their conditions need not be identical. Identical values can stand only once.
# Legend:
# [1] = system: Babesia bovis (Texas strain); test: in vitro growth inhibition assay (SYBR Green I fluorescence), single drug and 1:1 combination; assay type: cell-based; conditions: B. bovis in vitro culture, 4 days
# Experimental: (§1) A microaerophilic stationary-phase culture system was used to maintain Babesia parasite cultures for a long time. Briefly, B. caballi (USDA strain) was grown using equine red blood cells (RBCs) in GIT medium supplemented with 40% equine serum. Theileria equi (USDA strain) was grown in equine RBCs in Medium 199 (M199; Sigma-Aldrich, Tokyo) supplemented with 40% equine serum, and hypoxanthine (MP Biomedicals, Santa Ana, CA, USA) at a final concentration of 13.6 μg/ml was used as a vital supplement. Babesia bovis (Texas strain) and B. bigemina (Argentina strain) were grown in bovine RBCs in M199 medium supplemented with 40% bovine serum. Meanwhile, B. divergens (Germany strain) was grown in bovine RBCs in medium RPMI 1640 (Sigma-Aldrich, Tokyo) supplemented with 40% bovine serum. All media included 60 U/ml penicillin G, 60 μg/ml streptomycin and 0.15 μg/ml amphotericin B (Sigma-Aldrich, St. Louis, MO, USA) to prevent bacterial contamination. The cultures were incubated at 37 °C in a humidified chamber with an atmosphere of 5% CO2, 5% O2 and 90% N2. Babesia microti (Munich strain) was recovered from − 80 °C stock, intraperitoneally injected in two 8-week old female BALB/c mice (Clea Japan, Tokyo, Japan), and the parasitemia was monitored every 2 days. The mice were euthanized using an anesthesia system containing isoflurane after parasitemia reached approximately 30%, and blood was collected by cardiac puncture to initiate the in vivo experiment. The animal experiment was conducted in accordance with the Regulations for Animal Experiments of Obihiro University of Agriculture and Veterinary Medicine, Japan (animal experiment accession number: 290168).
# (§2) Assays were performed in accordance with the previously described protocol. Briefly, B. bovis, B. bigemina, B. divergens, B. caballi and T. equi cultures were harvested and adjusted to 1% parasitemia with fresh RBCs to start the inhibition assay. The assays were carried out using 96-well microtiter plates where only the 60 inner wells were used, while the peripheral wells were filled with sterile distillate water to reduce evaporation during incubation. In five 96-well plates, a volume of 2.5 µl each of B. bigemina- and B. bovis-iRBCs and 5 µl each of B. divergens-, B. caballi- and T. equi-iRBCs were added to each well in triplicate and mixed with a culture medium containing the drug concentrations to a total volume of 100 µl. Various concentrations of EA, β-CD EA, APSP EA, DA, CF and AQ were dissolved in a culture medium using two-fold dilution. Wells containing DMSO at a final concentration of 0.4% and iRBCs were used as a positive control, while wells with non-infected RBCs and culture medium were used as a negative control. Additionally, a drug combination assay was performed in parallel with the single drug assay at a constant ratio of 1:1, as described previously. […] The plates were incubated in a humidified incubator with 5% CO2, 5% O2 and 90% N2 for 4 days without changing the medium. On day 4, 100 µl of a lysis buffer containing 2 × SG1 was added to each well. The plates were wrapped with aluminum foil to avoid direct light exposure and incubated at room temperature. After 6 h, fluorescence values were measured using a fluorescence spectrophotometer (Fluoroskan Ascent; Thermo LabSystems, Oceanside, CA, USA) with excitation and emission wavelengths of 485 and 518 nm, respectively. The fluorescence data were subtracted from the negative control and used to calculate the IC50. To calculate the degree of association, the growth-inhibition values obtained were entered into CompuSyn software, based on the combination index (CI) values. […] The experiments were repeated three times.
# [2] = system: Theileria equi (USDA strain); test: as above; assay type: cell-based; conditions: T. equi in vitro culture, 4 days
# Experimental: as §1, §2
# [3] = system: B. bigemina (Argentina strain); test: as above; assay type: cell-based, Babesia bigemina; conditions: B. bigemina in vitro culture, 4 days
# Experimental: as §1
# (§3) Assays were performed in accordance with the previously described protocol. Briefly, B. bovis, B. bigemina, B. divergens, B. caballi and T. equi cultures were harvested and adjusted to 1% parasitemia with fresh RBCs to start the inhibition assay. The assays were carried out using 96-well microtiter plates where only the 60 inner wells were used, while the peripheral wells were filled with sterile distillate water to reduce evaporation during incubation. In five 96-well plates, a volume of 2.5 µl each of B. bigemina- and B. bovis-iRBCs and 5 µl each of B. divergens-, B. caballi- and T. equi-iRBCs were added to each well in triplicate and mixed with a culture medium containing the drug concentrations to a total volume of 100 µl. Various concentrations of EA, β-CD EA, APSP EA, DA, CF and AQ were dissolved in a culture medium using two-fold dilution. Wells containing DMSO at a final concentration of 0.4% and iRBCs were used as a positive control, while wells with non-infected RBCs and culture medium were used as a negative control. Additionally, a drug combination assay was performed in parallel with the single drug assay at a constant ratio of 1:1, as described previously. […] The plates were incubated in a humidified incubator with 5% CO2, 5% O2 and 90% N2 for 4 days without changing the medium. On day 4, 100 µl of a lysis buffer containing 2 × SG1 was added to each well. The plates were wrapped with aluminum foil to avoid direct light exposure and incubated at room temperature. After 6 h, fluorescence values were measured using a fluorescence spectrophotometer (Fluoroskan Ascent; Thermo LabSystems, Oceanside, CA, USA) with excitation and emission wavelengths of 485 and 518 nm, respectively. The fluorescence data were subtracted from the negative control and used to calculate the IC50. […]
# [4] = system: B. divergens (Germany strain); test: as above; assay type: cell-based, Babesia divergens; conditions: B. divergens in vitro culture, 4 days
# Experimental: as §1, §3
# [5] = system: B. caballi (USDA strain); test: as above; assay type: cell-based, Babesia caballi; conditions: B. caballi in vitro culture, 4 days
# Experimental: as §1, §3
# [6] = system: Madin-Darby bovine kidney (MDBK) cell line; test: cytotoxicity assay (CCK-8); assay type: cell-based; conditions: for EC50: MDBK cells, 24 h exposure, CCK-8; for inhibition of cell viability: 100 µM, separate assay
# Experimental: (§4) The MDBK cell line was maintained in 75 cm^2 culture flasks with Minimum Essential Medium Eagle (MEM; Gibco, Grand Island, NY, USA), while Dulbecco’s Modified Eagle’s Medium (DMEM; […] Each medium was supplemented with 10% fetal bovine serum, 0.5% penicillin/streptomycin (Gibco), and an additional 1% glutamine. Every 3 to 4 days, the medium was changed, and the cells were incubated until approximately 80% confluent. The cells were free from mycoplasma contamination after being checked by staining with 4,6-diamidino-2-phenylindole dihydrochloride (DAPI; Sigma-Aldrich, St. Louis). The cell detachment from the culture flask was done using TrypLE^TM Express (Gibco) after washing two times with Dulbecco’s phosphate-buffered saline (DPBS). Subsequently, viable cells were counted using a Neubauer Improved C-Chip (NanoEnTek Inc., Seoul, Korea) after staining with 0.4% trypan blue solution. The drug-exposure viability assay was performed in accordance with the recommendation for the Cell Counting Kit-8 (CCK-8; Dojindo, Kumamoto, Japan). Briefly, in a 96-well plate, 100 µl of cells at a density of 5 × 10^4 cells/ml were seeded per well and allowed to attach to the plate for 24 h at 37 °C in a humidified incubator with 5% CO2. Ten microliters of drug diluted two-fold were added to each well to a final concentration of 0.781 to 800 µM in triplicate. Wells with only a culture medium were used as blanks, while wells containing cells and a medium with 0.5% DMSO were used as positive controls. Drug exposure lasted for 24 h. After 24 h, 10 µl of CCK-8 was added, and the plate was further incubated for 3 h. Absorbance was measured at 450 nm using a microplate reader.
# [7] = system: human foreskin fibroblast (HFF) cell line; test: cytotoxicity assay (CCK-8); assay type: cell-based; conditions: for inhibition of cell viability: HFF, 100 µM, separate assay; for EC50: HFF cells, 24 h exposure, CCK-8
# Experimental: as §4
# [8] = system: mouse embryonic fibroblast (NIH/3T3) cell line; test: cytotoxicity assay (CCK-8); assay type: cell-based; conditions: for EC50: NIH/3T3 cells, 24 h exposure, CCK-8; for inhibition of cell viability: NIH/3T3, 100 µM, separate assay
# Experimental: as §4
# [9] = system: Babesia microti (Munich strain); test: in vivo growth inhibition and drug combination assays in B. microti-infected BALB/c mice; conditions: for peak parasitemia level: 5 days
# Experimental: as §1
# In vivo growth inhibition assays of EA, β-CD EA and APSP EA were performed in B. microti-infected BALB/c mice in accordance with the previous protocol in two separate trials. […] The mice in groups 2–8 were intraperitoneally (i.p.) injected with 0.5 ml of inoculum (1 × 10^7 B. microti-iRBCs). Group 1 was left uninfected and untreated as a negative control. When the average parasitemia in all mice reached 1%, drug treatment was initiated for 5 consecutive days. […] DA at a concentration of 25 mg/kg body weight (BW) was administrated i.p. to the third group as a reference drug control.
# [10] = system: B. microti; test: nested PCR detection of B. microti ss-rRNA gene in blood of treated mice; assay type: in vivo, Babesia microti; conditions: day 42
# [11] = Babesia bovis, in Bos taurus, 96 h
# [12] = EC50 NIH/3T3 / IC50 B. bigemina
# [13] = EC50 NIH/3T3 / IC50 B. divergens
smiles,measurement,setting,value
"O=C1C(O)=C([C@H]2CC[C@H](c3ccc(Cl)cc3)CC2)C(=O)c2ccccc21 [AQ, atovaquone]",IC50,[1]; [11],39 ± 2 nM
same,IC50,"[2]; Theileria equi, 96 h",95 ± 65.5 nM
same,IC50,"[3]; Babesia bigemina, 96 h",701 ± 40 nM
same,IC50,"[4]; Babesia divergens, 96 h",38 ± 2 nM
same,IC50,"[5]; Babesia caballi, 96 h",102 ± 14.1 nM
same,EC50,"[6]; Bos taurus, MDBK, 24 h",> 100000 nM
same,Selective indices MDBK,[6]; EC50 MDBK / IC50 B. bigemina,˃ 12.7
same,Selective indices MDBK,[6]; EC50 MDBK / IC50 B. caballi,˃ 30.4
same,Selective indices MDBK,[6]; EC50 MDBK / IC50 B. divergens,˃ 18.5
same,Selective indices MDBK,[6]; EC50 MDBK / IC50 T. equi,˃ 13.4
same,inhibition of cell viability,[6]; MDBK,did not show any inhibition
same,Selective indices HFF,[7]; EC50 HFF / IC50 B. bigemina,˃ 12.7
same,Selective indices HFF,[7]; EC50 HFF / IC50 B. caballi,˃ 30.4
same,Selective indices HFF,[7]; EC50 HFF / IC50 B. divergens,˃ 18.5
same,Selective indices HFF,[7]; EC50 HFF / IC50 T. equi,˃ 13.4
same,inhibition of cell viability,[7],did not show any inhibition
same,EC50,[7]; Homo sapiens,> 100000 nM
same,Selective indices NIH/3T3,[8]; [12],˃ 12.7
same,Selective indices NIH/3T3,[8]; EC50 NIH/3T3 / IC50 B. caballi,˃ 30.4
same,Selective indices NIH/3T3,[8]; [13],˃ 18.5
same,Selective indices NIH/3T3,[8]; EC50 NIH/3T3 / IC50 T. equi,˃ 13.4
same,EC50,"[8]; Mus musculus, NIH3T3",> 100000 nM
same,inhibition of cell viability,[8],did not show any inhibition
same,day p.i. from which parasitemia was undetectable by microscopic examination,"[9]; second assay, 20 mg/kg AQ",15 day p.i.
same,peak parasitemia level,"[9]; second assay, 20 mg/kg AQ oral, DDW control 58.3%",4.3%
same,parasite DNA in blood (nPCR),[10]; 20 mg/kg AQ,not detected
"CC(C)/N=c1\cc2n(-c3ccc(Cl)cc3)c3ccccc3nc-2cc1Nc1ccc(Cl)cc1 [CF, clofazimine]",IC50,[1]; [11],8240 ± 1700 nM
same,IC50,"[2]; Theileria equi, 96 h",2880 ± 900 nM
same,IC50,"[3]; Babesia bigemina, 96 h",5730 ± 1900 nM
same,IC50,"[4]; Babesia divergens, 96 h",13800 ± 4300 nM
same,IC50,"[5]; Babesia caballi, 96 h",7950 ± 1800 nM
same,EC50,"[6]; Bos taurus, MDBK, 24 h",34000 ± 3400 nM
same,Selective indices MDBK,[6]; EC50 MDBK / IC50 B. bigemina,6.1
same,Selective indices MDBK,[6]; EC50 MDBK / IC50 B. bovis,4.2
same,Selective indices MDBK,[6]; EC50 MDBK / IC50 B. caballi,4.4
same,Selective indices MDBK,[6]; EC50 MDBK / IC50 B. divergens,2.5
same,Selective indices HFF,[7]; EC50 HFF / IC50 B. bigemina,˃ 17.5
same,Selective indices HFF,[7]; EC50 HFF / IC50 B. bovis,˃ 12.1
same,Selective indices HFF,[7]; EC50 HFF / IC50 B. caballi,˃ 12.6
same,Selective indices HFF,[7]; EC50 HFF / IC50 B. divergens,˃ 7.2
same,Selective indices HFF,[7]; EC50 HFF / IC50 T. equi,˃ 34.7
same,EC50,[7]; Homo sapiens,> 100000 nM
same,Selective indices NIH/3T3,[8]; [12],˃ 17.5
same,Selective indices NIH/3T3,[8]; EC50 NIH/3T3 / IC50 B. bovis,˃ 12.1
same,Selective indices NIH/3T3,[8]; EC50 NIH/3T3 / IC50 B. caballi,˃ 12.6
same,Selective indices NIH/3T3,[8]; [13],˃ 7.2
same,Selective indices NIH/3T3,[8]; EC50 NIH/3T3 / IC50 T. equi,˃ 34.7
same,EC50,"[8]; Mus musculus, NIH3T3",> 100000 nM
same,day p.i. from which parasitemia was undetectable by microscopic examination,"[9]; second assay, 20 mg/kg CF",16 day p.i.
same,peak parasitemia level,"[9]; second assay, 20 mg/kg CF oral, DDW control 58.3%",4.9%
"CC(=O)NCC(=O)O.CC(=O)NCC(=O)O.N=C(N)c1ccc(N=NNc2ccc(C(=N)N)cc2)cc1 [DA, diminazene aceturate]",IC50,[1],350 ± 60 nM
same,IC50,[2],710 ± 50 nM
same,IC50,[3],680 ± 90 nM
same,IC50,[4],430 ± 50 nM
same,IC50,[5],22 nM and 20 nM
same,EC50,[6],> 100000 nM
same,inhibition of cell viability,[6]; MDBK,did not show any inhibition
same,EC50,[7],> 100000 nM
same,inhibition of cell viability,[7],did not show any inhibition
same,inhibition of cell viability,[8],did not show any inhibition
same,EC50,[8],> 100000 nM
same,peak parasitemia level,"[9]; first assay, 25 mg/kg DA i.p., peak on day 8, DDW control 57.7%",5.2%
same,day p.i. from which parasitemia was undetectable by microscopic examination,"[9]; second assay, 25 mg/kg DA",13 day p.i.
same,peak parasitemia level,"[9]; second assay, 25 mg/kg DA i.p., DDW control 58.3%",3.9%
same,parasite DNA in blood (nPCR),[10]; 25 mg/kg DA,not detected
